Source: the NIST ThermoML archive (doi:10.1021/je900405j)
± gives the expanded uncertainty stated by the source.

Conditions: for viscosity: 101.33 kPa, Cone and plate viscometry; for viscosity / surface tension liquid-gas: Liquid; for surface tension liquid-gas: 293 K; for Normal melting temperature: Crystal; for Normal melting temperature / Glass transition temperature: DTA

viscosity (290 K) [mPa·s]	surface tension liquid-gas [mN/m]	viscosity (295 K) [mPa·s]	viscosity (300 K) [mPa·s]	viscosity (305 K) [mPa·s]	viscosity (310 K) [mPa·s]	viscosity (315 K) [mPa·s]	viscosity (320 K) [mPa·s]	viscosity (325 K) [mPa·s]	viscosity (330 K) [mPa·s]	viscosity (335 K) [mPa·s]	viscosity (340 K) [mPa·s]	viscosity (345 K) [mPa·s]	viscosity (350 K) [mPa·s]	viscosity (355 K) [mPa·s]	viscosity (360 K) [mPa·s]	viscosity (365 K) [mPa·s]	Normal melting temperature [°C]	Glass transition temperature [°C]	SMILES
46 ± 10	53 ± 7	41 ± 10	32 ± 10	31 ± 10	27 ± 10	24 ± 10	22 ± 10	21 ± 10	19	18	18	16	15	15	15	13			CCn1cc[n+](C)c1.F[B-](F)(F)F [1-ethyl-3-methylimidazolium tetrafluoroborate]
24	64 ± 9	21	19	18	17	16	15	15	14	14	13	13	12	12	12	12	-18 ± 2	-96 ± 3	CCn1cc[n+](C)c1.N#CN=C=[N-] [1-ethyl-3-methylimidazolium dicyanamide]
355 ± 17	38 ± 5	272 ± 14	209 ± 12	163 ± 11	129 ± 10	105 ± 10	87 ± 10	72 ± 10	62 ± 10	53 ± 10	47 ± 10	41 ± 10	37 ± 10	34 ± 10	30 ± 10	28 ± 10	4 ± 2	-116 ± 3	CCCC[N+]1(C)CCCC1.FC(F)(F)C(F)(F)[P-](F)(F)(F)(C(F)(F)C(F)(F)F)C(F)(F)C(F)(F)F

SMILES	viscosity (290 K) [mPa·s]	surface tension liquid-gas [mN/m]	viscosity (295 K) [mPa·s]	viscosity (300 K) [mPa·s]	viscosity (305 K) [mPa·s]	viscosity (310 K) [mPa·s]	viscosity (315 K) [mPa·s]	viscosity (320 K) [mPa·s]	viscosity (325 K) [mPa·s]	viscosity (330 K) [mPa·s]	viscosity (335 K) [mPa·s]	viscosity (340 K) [mPa·s]	viscosity (345 K) [mPa·s]	viscosity (350 K) [mPa·s]	viscosity (355 K) [mPa·s]	viscosity (360 K) [mPa·s]	viscosity (365 K) [mPa·s]	Normal melting temperature [°C]	Glass transition temperature [°C]
CCC[n+]1ccn(C)c1C.O=S(=O)([N-]S(=O)(=O)C(F)(F)F)C(F)(F)F	131 ± 10	41 ± 6	106 ± 10	85 ± 10	69 ± 10	58 ± 10	49 ± 10	42 ± 10	37 ± 10	33 ± 10	29 ± 10	27 ± 10	24 ± 10	23 ± 10	21 ± 10	20	19	8 ± 2	-109 ± 20
